pEC50: −log10 of the molar value. The source made the active and inactive calls. The rule behind the calls is not given here. Bridge positions count the residues as written; N and C are the ends. Peptide text beside a SMILES is read from it.
Columns and labels:
[1] = target: T1, Mas-related G-protein coupled receptor member X2 (Homo sapiens) (UniProt Q96LB1); experiment: Agonist activity at MRGPRX2 (unknown origin) expressed in HEK293 cells assessed as induction of G(o) dissociation by measuring luminescent decay at 32 uM by NanoBiT-G-protein dissociation assay; format: functional, cell-based; details: filed as agonist
T1 sequence (whole entry): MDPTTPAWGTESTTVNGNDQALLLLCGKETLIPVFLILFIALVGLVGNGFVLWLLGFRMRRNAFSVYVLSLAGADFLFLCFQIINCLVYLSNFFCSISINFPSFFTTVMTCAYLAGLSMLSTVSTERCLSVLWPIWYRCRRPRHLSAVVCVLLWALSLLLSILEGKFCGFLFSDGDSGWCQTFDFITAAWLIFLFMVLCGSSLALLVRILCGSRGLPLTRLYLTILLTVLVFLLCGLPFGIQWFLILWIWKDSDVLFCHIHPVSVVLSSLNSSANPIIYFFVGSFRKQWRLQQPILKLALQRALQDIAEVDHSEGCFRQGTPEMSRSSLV

[2] = target: T2, Mas-related G-protein coupled receptor member B2 (Mus musculus) (UniProt Q3KNA1); experiment: Agonist activity at mouse Mrgprb2 expressed in HEK293 cells assessed as induction of G(o) dissociation by measuring luminescent decay at 32 uM by NanoBiT-G-protein dissociation assay; format: cell-based; details: filed as agonist
T2 sequence (whole entry): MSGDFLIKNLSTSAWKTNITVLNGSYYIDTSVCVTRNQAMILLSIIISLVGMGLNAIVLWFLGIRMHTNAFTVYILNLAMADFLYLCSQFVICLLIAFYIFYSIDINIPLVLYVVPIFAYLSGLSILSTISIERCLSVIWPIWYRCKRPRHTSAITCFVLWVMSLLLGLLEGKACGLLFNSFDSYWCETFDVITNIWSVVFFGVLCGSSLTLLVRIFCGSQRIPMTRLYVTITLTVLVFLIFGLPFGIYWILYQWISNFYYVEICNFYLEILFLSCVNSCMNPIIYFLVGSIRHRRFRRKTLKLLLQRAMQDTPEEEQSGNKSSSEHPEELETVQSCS

Mus musculus [3] = species: Mus musculus; experiment: Increase in number of nociceptive behaviors in mouse at 3 to 30 ug, it; format: functional; details: dose 3-30 µg, DDE = dose-dependent effect
Mus musculus [4] = species: Mus musculus; experiment: Increase in number of nociceptive behaviors in mouse at 30 ug, it; format: functional; details: dose 30.0 µg
Mus musculus [5] = species: Mus musculus; experiment: Increase in number of scratching behaviors in mouse at 3 to 300 ug, id; format: functional; details: dose 3-300 µg, DDE = dose-dependent effect
[6] = target: T3, Mas-related G-protein coupled receptor member X2 (Homo sapiens, UniProt Q96LB1); experiment: Agonistic activity at MRGPRX2 (unknown origin)
T3 sequence (Q96LB1 whole entry): T1 sequence (whole entry)

[7] = target: T1, Mas-related G-protein coupled receptor member X2 (Homo sapiens); experiment: Agonist activity at MRGPRX2 (unknown origin) expressed in HEK293 cells assessed as induction of G(o) dissociation by measuring luminescent decay at 10 uM by NanoBiT-G-protein dissociation assay; format: functional, cell-based; details: filed as agonist
[8] = target: T2, Mas-related G-protein coupled receptor member B2 (Mus musculus); experiment: Agonist activity at mouse Mrgprb2 expressed in HEK293 cells assessed as induction of G(o) dissociation by measuring luminescent decay at 10 uM by NanoBiT-G-protein dissociation assay; format: cell-based; details: filed as agonist

`CN1CC[C@]23Cc4nc5ccccc5cc4C[C@@]2(O)[C@H]1Cc1ccc(O)cc13` was tested, and the Activity [1] was “Active”, the Activity [2] was “Active” and the Activity (Mus musculus [3]) was “Dde”. The Activity (Mus musculus [4]) was “Active” and the Activity (Mus musculus [5]) was “Dde”.
`CN1CC[C@]2(c3cccc(O)c3)Cc3nc4ccccc4cc3C[C@@H]2C1` was tested, and the pEC50 [6] was 6.54, the Activity [1] was “Active” and the Activity [2] was “Active”.
With `C[C@@H](O)[C@@H]1NC(=O)[C@H](CCCCN)NC(=O)[C@H](Cc2c[nH]c3ccccc23)NC(=O)[C@H](Cc2ccccc2)NC(=O)[C@H](Cc2ccccc2)NC(=O)[C@H](CC(N)=O)NC(=O)[C@H](CCCCN)NC(=O)[C@@H](NC(=O)[C@@H]2CCCN2)CSSC[C@@H](C(=O)N[C@@H](CCCCN)C(=O)O)NC(=O)[C@H](CO)NC(=O)[C@H](CO)NC(=O)[C@H](Cc2ccccc2)NC1=O` (H-PCKNFFWKTFSSCK-OH; disulfide 2-13) the Activity [7] was “Active” and the Activity [8] was “Active”.

— ChEMBL document CHEMBL5131412, “Synthesis of unnatural morphinan compounds to induce itch-like behaviors in mice: Towards the development of MRGPRX2 selective ligands” (Bioorg Med Chem Lett, 2022)
